# Test results published in patent US20240197650A1, “Combination of Cinnamaldheyde and Eugenol with Antimycotic Activity” (priority 2021, published 2024).
# Columns and labels:
# Candida spp. [1] = test: Disk diffusion method, 18 Candida spp. strains (distribution); format: cell-based
# Protocol: (§1) A total of eighteen strains belonging to Candida spp. (15 C. albicans, 2 C. glabrata and 1 C. lusitaniae) derived from a collection of vaginal strains isolated in CHROMAgar Candida (BD Italia SpA, Milan, Italy) were grown on Potato Dextrose Agar (Oxoid Thermofisher SpA, Milan, Italy) at 35° C. for 24 hours.
# (§2) Colonies were re-suspended in sterile saline at a density corresponding to #0.5 McFarland (opacity standard). #0.5 McF correspond to 1.4×10^6 colony forming units (CFU)/ml for C. albicans, 4.3×10^6 CFU/ml for C. glabrata and 3×10^6 CFU/ml for C. lusitaniae [Guinea J. et al., Rapid antifungal susceptibility determination for yeast isolates by use of Etest performed directly on blood samples from patients with fungemia, J Clin Microbiol. 2010 June, 48(6): 2205-12]. Then, the sensitivity test vs the two oils has been performed. The disk diffusion method was carried out as follows: for each tested strain, 4 plates of Potato Dextrose Agar (PDA) were seeded in 3 directions to produce a confluent growth, by sterile swab soaked in the cell suspension. Sorbent paper disks (Oxoid Thermofisher SpA, Milan, Italy) 6.0 mm diameter were placed on the agar surface and added with 10 μl of each essential oil. Disks soaked with 10 μg amphotericin B were used as positive control. Also disks of chlortrimazole (from 10 μg to 40 μg) were used, but the inhibition rings could not be clearly read due to the formation of a re-growth ring. Disks soaked with 10 μl pure dimethylsulphoxide (DMSO, Sigma-Aldrich, St. Louis, MO, USA) were used as negative control. The plates were incubated at 35° C. for 24 hours. All the experiments were carried out in duplicate. The inhibiting effect of the oils were considered to be effective when the inhibition ring was equal or greater than that caused by amphotericin B. For amphotericin B, an inhibition zone (IZ)≥15 mm was considered as “sensitivity”, from 10 to 14 mm as “intermediate sensitivity” and <10 mm as “resistance” [Kauser et al., Agreement of Direct Antifungal Susceptibility Testing from Positive Blood Culture Bottles with Conventional Method for Candida Species, J Clin Microbiol. 2016 February, 54(2):343-34].
# C. albicans [2] = test: Disk diffusion method, C. albicans strains; format: cell-based
# Protocol: as §1, §2
# C. glabrata [3] = test: Disk diffusion method, C. glabrata strains; format: cell-based
# Protocol: as §1, §2
# C. lusitaniae [4] = test: Disk diffusion method, C. lusitaniae strain; format: cell-based; settings: C. lusitaniae 1
# Protocol: as §1
# Colonies were re-suspended in sterile saline at a density corresponding to #0.5 McFarland (opacity standard). #0.5 McF correspond to 1.4×10^6 colony forming units (CFU)/ml for C. albicans, 4.3×10^6 CFU/ml for C. glabrata and 3×10^6 CFU/ml for C. lusitaniae [Guinea J. et al., Rapid antifungal susceptibility determination for yeast isolates by use of Etest performed directly on blood samples from patients with fungemia, J Clin Microbiol. 2010 June, 48(6): 2205-12]. Then, the sensitivity test vs the two oils has been performed. The disk diffusion method was carried out as follows: for each tested strain, 4 plates of Potato Dextrose Agar (PDA) were seeded in 3 directions to produce a confluent growth, by sterile swab soaked in the cell suspension. Sorbent paper disks (Oxoid Thermofisher SpA, Milan, Italy) 6.0 mm diameter were placed on the agar surface and added with 10 μl of each essential oil. Disks soaked with 10 μg amphotericin B were used as positive control. Also disks of chlortrimazole (from 10 μg to 40 μg) were used, but the inhibition rings could not be clearly read due to the formation of a re-growth ring. Disks soaked with 10 μl pure dimethylsulphoxide (DMSO, Sigma-Aldrich, St. Louis, MO, USA) were used as negative control. The plates were incubated at 35° C. for 24 hours. All the experiments were carried out in duplicate. […]
# Candida spp. [5] = test: Microdilution method MIC/MFC, 18 Candida spp. strains (distribution); format: cell-based; settings: 18 strains
# Protocol: as §1
# (§3) The antifungal activity of amphotericin B and of cinnamaldheyde and eugenol were tested with the microdilution method as reported by Bona et al. [Bona et al., Sensitivity of Candida albicans to essential oils: are they an alternative to antifungal agents? J Appl Microbiol. 2016 December, 121(6): 1530-1545] with small changes. All the 18 Candida spp strains were tested. For each isolated, the colonies deriving from cultures (24 hours) in PDA were diluted in saline up to a concentration of 2×10^3 CFU/ml (so obtaining a final concentration of 10 3CGU/ml). Cinnamaldehyde and eugenol were dissolved in DMSO (80% oil, 20% DMSO), then diluted in Sabouraud broth up to a concentration of 8% v/v (so obtaining a final concentration of 4% v/v). Then, in a 96-well microtiter plate ½ serial dilution of amphotericin B (range 32-0.032 μg/ml, for a final range of 16-0.016 μg/ml) and of the essential oils (range 8-0.004% v/v, for a final range of 4-0.002% v/v) were carried out. Each well was then injected with 100 μl of cell suspension. The negative control contained DMSO diluted in Sabouraud broth (at 2% v/v, for a final concentration of 1% v/v). […] Each experiment was carried out in duplicate. The Minimum Inhibitory Concentration (MIC) was determined as the concentration of the oils in the first well which is not cloudy. The Minimum Fungicidal Concentration (MFC) was determined as the lowest concentration of the oils, with the agar culture showing the complete absence of fungal growth. The determination of the amphotericin B MIC was carried out also according to the EUCAST guidelines (cutoff 1 μg/ml) [https://eucast.org/astoffungi/clinicalbreakpointsforantifungals], all the results being consistent.
# C. albicans [6] = test: Microdilution method MIC/MFC, C. albicans strains; format: cell-based
# Protocol: as §1, §3
# C. glabrata [7] = test: Microdilution method MIC/MFC, C. glabrata strains; format: cell-based
# Protocol: as §1, §3
# C. lusitaniae [8] = test: Microdilution method MIC/MFC, C. lusitaniae strain; format: cell-based; settings: C. lusitaniae 1
# Protocol: as §1, §3
# [9] = Additional essential oils in combination with cinnamaldehyde or eugenol; settings: antimycotic activity
# [10] = 18 strains, disk 10 μl oil or 10 μg amphotericin B, 35° C. 24 hours
structure (smiles),measurement,setting,value
"C[C@@H]1[C@H](O)[C@@H](C)/C=C/C=C/C=C/C=C/C=C/C=C/C=C/[C@H](O[C@@H]2O[C@H](C)[C@@H](O)[C@H](N)[C@@H]2O)C[C@@H]2O[C@](O)(C[C@@H](O)C[C@@H](O)[C@H](O)CC[C@@H](O)C[C@@H](O)CC(=O)O[C@H]1C)C[C@H](O)[C@H]2C(=O)O [Amphotericin B, amphotericin B, reference compound]","inhibition rings diameter, average (including 6.0 mm of the disk)",Candida spp. [1]; [10],15.4 mm
same,"inhibition rings diameter, range (including 6.0 mm of the disk)",Candida spp. [1]; [10],10-20.5 mm
same,category of the inhibition rings,"Candida spp. [1]; all 18 strains, confirmed by microdilution",“sensitivity” or “intermediate sensitivity”
same,Diameters of the inhibition rings (including 6.0 mm of the disk),C. albicans [2]; C. albicans 1,13.0 mm
same,Diameters of the inhibition rings (including 6.0 mm of the disk),C. albicans [2]; C. albicans 2,15.5 mm
same,Diameters of the inhibition rings (including 6.0 mm of the disk),C. albicans [2]; C. albicans 3,16.0 mm
same,Diameters of the inhibition rings (including 6.0 mm of the disk),C. albicans [2]; C. albicans 4,19.5 mm
same,Diameters of the inhibition rings (including 6.0 mm of the disk),C. albicans [2]; C. albicans 5,16.0 mm
same,Diameters of the inhibition rings (including 6.0 mm of the disk),C. albicans [2]; C. albicans 6,16.0 mm
same,Diameters of the inhibition rings (including 6.0 mm of the disk),C. albicans [2]; C. albicans 7,16.0 mm
same,Diameters of the inhibition rings (including 6.0 mm of the disk),C. albicans [2]; C. albicans 8,20.5 mm
same,Diameters of the inhibition rings (including 6.0 mm of the disk),C. albicans [2]; C. albicans 9,12.0 mm
same,Diameters of the inhibition rings (including 6.0 mm of the disk),C. albicans [2]; C. albicans 10,15.0 mm
same,Diameters of the inhibition rings (including 6.0 mm of the disk),C. albicans [2]; C. albicans 11,14.5 mm
same,Diameters of the inhibition rings (including 6.0 mm of the disk),C. albicans [2]; C. albicans 12,16.5 mm
same,Diameters of the inhibition rings (including 6.0 mm of the disk),C. albicans [2]; C. albicans 13,16.0 mm
same,Diameters of the inhibition rings (including 6.0 mm of the disk),C. albicans [2]; C. albicans 14,19.0 mm
same,Diameters of the inhibition rings (including 6.0 mm of the disk),C. albicans [2]; C. albicans 15,15.5 mm
same,Diameters of the inhibition rings (including 6.0 mm of the disk),C. glabrata [3]; C. glabrata 1,15.0 mm
same,Diameters of the inhibition rings (including 6.0 mm of the disk),C. glabrata [3]; C. glabrata 2,11.0 mm
same,Diameters of the inhibition rings (including 6.0 mm of the disk),C. lusitaniae [4],10.0 mm
same,MFC average,Candida spp. [5],0.11 µg/mL
same,MIC average,Candida spp. [5],0.052 µg/mL
same,MFC,C. albicans [6]; C. albicans 1,0.064 µg/mL
same,MIC,C. albicans [6]; C. albicans 1,0.032 µg/mL
same,MFC,C. albicans [6]; C. albicans 2,0.064 µg/mL
same,MIC,C. albicans [6]; C. albicans 2,0.032 µg/mL
same,MFC,C. albicans [6]; C. albicans 3,0.064 µg/mL
same,MIC,C. albicans [6]; C. albicans 3,0.032 µg/mL
same,MFC,C. albicans [6]; C. albicans 4,0.125 µg/mL
same,MIC,C. albicans [6]; C. albicans 4,0.032 µg/mL
same,MFC,C. albicans [6]; C. albicans 5,0.250 µg/mL
same,MIC,C. albicans [6]; C. albicans 5,0.016 µg/mL
same,MFC,C. albicans [6]; C. albicans 6,0.064 µg/mL
same,MIC,C. albicans [6]; C. albicans 6,0.032 µg/mL
same,MFC,C. albicans [6]; C. albicans 7,0.064 µg/mL
same,MIC,C. albicans [6]; C. albicans 7,0.032 µg/mL
same,MFC,C. albicans [6]; C. albicans 8,0.032 µg/mL
same,MIC,C. albicans [6]; C. albicans 8,0.016 µg/mL
same,MFC,C. albicans [6]; C. albicans 9,0.250 µg/mL
same,MIC,C. albicans [6]; C. albicans 9,0.125 µg/mL
same,MFC,C. albicans [6]; C. albicans 10,0.032 µg/mL
same,MIC,C. albicans [6]; C. albicans 10,0.032 µg/mL
same,MFC,C. albicans [6]; C. albicans 11,0.250 µg/mL
same,MIC,C. albicans [6]; C. albicans 11,0.125 µg/mL
same,MFC,C. albicans [6]; C. albicans 12,0.016 µg/mL
same,MIC,C. albicans [6]; C. albicans 12,≤0.016 µg/mL
same,MFC,C. albicans [6]; C. albicans 13,0.125 µg/mL
same,MIC,C. albicans [6]; C. albicans 13,0.064 µg/mL
same,MFC,C. albicans [6]; C. albicans 14,0.125 µg/mL
same,MIC,C. albicans [6]; C. albicans 14,0.032 µg/mL
same,MFC,C. albicans [6]; C. albicans 15,0.064 µg/mL
same,MIC,C. albicans [6]; C. albicans 15,0.032 µg/mL
same,MFC,C. glabrata [7]; C. glabrata 1,0.064 µg/mL
same,MIC,C. glabrata [7]; C. glabrata 1,0.032 µg/mL
same,MFC,C. glabrata [7]; C. glabrata 2,0.125 µg/mL
same,MIC,C. glabrata [7]; C. glabrata 2,0.125 µg/mL
same,MFC,C. lusitaniae [8],0.250 µg/mL
same,MIC,C. lusitaniae [8],0.125 µg/mL
CC1=CCC2CC1C2(C)C (stereo not drawn) [α-pinene],advantage when administered in combination with cinnamaldehyde or eugenol,[9],did not show any advantage
